ChEMBL document CHEMBL3393053, “Synthesis and biological evaluation of isoindoloisoquinolinone, pyroloisoquinolinone and benzoquinazolinone derivatives as poly(ADP-ribose) polymerase-1 inhibitors” (Bioorg Med Chem, 2015)

Experiments:
[1] = Antioxidant activity against H2O2-induced oxidative stress in chicken RBC assessed as catalase activity by measuring H2O2 utilization per mg protein pre-incubated at 25 uM followed by H2O2 addition by UV spectroscopy (reference value: 15.97 +/- 2.12 nmol of H2O2 utilized/min/mg of protein); assay type: functional, Gallus gallus, Erythrocyte
[2] = Antioxidant activity against H2O2-induced oxidative stress in chicken RBC assessed as catalase activity by measuring H2O2 utilization per mg protein pre-incubated at 100 uM followed by H2O2 addition by UV spectroscopy (reference value: 15.97 +/- 2.12 nmol of H2O2 utilized/min/mg of protein); assay type: functional, Gallus gallus, Erythrocyte
[3] = (§1) Antioxidant activity against H2O2-induced oxidative stress in chicken RBC assessed as lipid peroxidation level by measuring malondialdehyde formation per mg protein pre-incubated at 50 uM followed by H2O2 addition by UV spectroscopy (reference value: 84.32 +/- 12.04 nmol malondialdehyde formed/mg protein); assay type: functional, Gallus gallus, Erythrocyte
[4] = Antioxidant activity against H2O2-induced oxidative stress in chicken RBC assessed as catalase activity by measuring H2O2 utilization per mg protein pre-incubated at 50 uM followed by H2O2 addition by UV spectroscopy (reference value: 15.97 +/- 2.12 nmol of H2O2 utilized/min/mg of protein); assay type: functional, Gallus gallus, Erythrocyte
Erythrocyte [5] = assay: Cytoprotective activity against H2O2-induced genomic DNA damage in chicken RBC assessed as DNA level in comet tail region pre-incubated at 100 uM followed by H2O2 addition by single cell alkaline gel electrophoresis and fluorescent microscopy based comet assay (reference value: 45.78 +/- 3.24%); assay type: functional, Gallus gallus
[6] = as §1, with “100” for “50”; assay type: functional, Gallus gallus, Erythrocyte
[7] = Antioxidant activity against H2O2-induced oxidative stress in chicken RBC assessed as catalase activity by measuring H2O2 utilization per mg protein pre-incubated at 75 uM followed by H2O2 addition by UV spectroscopy (reference value: 15.97 +/- 2.12 nmol of H2O2 utilized/min/mg of protein); assay type: functional, Gallus gallus, Erythrocyte
[8] = as §1, with “25” for “50”; assay type: functional, Gallus gallus, Erythrocyte
[9] = (§2) Antioxidant activity against H2O2-induced oxidative stress in chicken RBC assessed as superoxide dismutase activity by measuring pyrogallol oxidization per mg protein pre-incubated at 75 uM followed by H2O2 addition by UV spectroscopy (reference value: 11.32 +/- 1.96 pyrogallol oxidized/min/mg of protein); assay type: functional, Gallus gallus, Erythrocyte
[10] = as §1, with “75” for “50”; assay type: functional, Gallus gallus, Erythrocyte
[11] = as §2, with “50” for “75”; assay type: functional, Gallus gallus, Erythrocyte
[12] = as §2, with “25” for “75”; assay type: functional, Gallus gallus, Erythrocyte
[13] = Cytoprotective activity against H2O2-induced cytotoxicity in chicken RBC assessed as cell viability pre-incubated at 100 uM followed by H2O2 addition by acridine orange and ethidium bromide staining method (reference value: 41 +/- 2.08%); assay type: functional; settings: Gallus gallus, Erythrocyte; read-out: Activity
[14] = Toxicity against chicken RBC assessed as effect on cell viability at 25 to 100 uM by acridine orange and ethidium bromide staining method; assay type: cell-based, Gallus gallus; settings: erythrocyte
Erythrocyte [15] = assay: Cytoprotective activity against H2O2-induced genomic DNA damage in chicken RBC assessed as DNA level in comet head region pre-incubated at 100 uM followed by H2O2 addition by single cell alkaline gel electrophoresis and fluorescent microscopy based comet assay (reference value: 52.23 +/- 3.98%); assay type: functional, Gallus gallus
[16] = as §2, with “100” for “75”; assay type: functional, Gallus gallus, Erythrocyte
[17] = biological target: Poly [ADP-ribose] polymerase 1 (Homo sapiens, UniProt P09874); assay: Inhibition of PARP1 (unknown origin) in presence of NAD+ by homogenous fluorescence plate assay
Poly [ADP-ribose] polymerase 1, sequence (P09874 whole entry): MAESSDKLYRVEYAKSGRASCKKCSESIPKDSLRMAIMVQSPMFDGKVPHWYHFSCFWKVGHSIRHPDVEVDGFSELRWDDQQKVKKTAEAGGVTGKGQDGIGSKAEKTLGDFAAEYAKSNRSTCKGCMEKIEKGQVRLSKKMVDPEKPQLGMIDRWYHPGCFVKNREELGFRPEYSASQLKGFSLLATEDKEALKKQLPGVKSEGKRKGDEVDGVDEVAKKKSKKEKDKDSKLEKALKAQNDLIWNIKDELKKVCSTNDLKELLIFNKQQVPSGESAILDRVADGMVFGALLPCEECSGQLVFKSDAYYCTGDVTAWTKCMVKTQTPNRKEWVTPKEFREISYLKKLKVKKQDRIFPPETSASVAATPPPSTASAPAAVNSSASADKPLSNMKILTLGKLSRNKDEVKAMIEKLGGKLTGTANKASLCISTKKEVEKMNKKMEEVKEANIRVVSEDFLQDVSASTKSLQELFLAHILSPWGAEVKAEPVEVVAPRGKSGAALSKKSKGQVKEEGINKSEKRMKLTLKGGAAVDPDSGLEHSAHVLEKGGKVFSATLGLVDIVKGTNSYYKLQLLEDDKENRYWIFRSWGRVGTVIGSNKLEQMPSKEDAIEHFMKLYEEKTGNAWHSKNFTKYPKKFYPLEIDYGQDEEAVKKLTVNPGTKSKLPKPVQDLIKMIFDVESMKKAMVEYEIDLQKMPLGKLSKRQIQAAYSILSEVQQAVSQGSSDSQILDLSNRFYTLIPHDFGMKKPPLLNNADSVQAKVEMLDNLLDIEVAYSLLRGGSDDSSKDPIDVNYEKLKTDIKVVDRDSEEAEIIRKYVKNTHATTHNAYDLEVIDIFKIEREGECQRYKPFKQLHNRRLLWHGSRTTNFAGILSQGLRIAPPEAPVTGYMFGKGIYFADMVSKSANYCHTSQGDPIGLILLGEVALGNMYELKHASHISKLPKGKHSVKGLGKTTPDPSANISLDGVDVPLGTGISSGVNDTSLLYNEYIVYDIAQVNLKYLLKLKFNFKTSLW

| IC50 [17] [nM] | Structure (SMILES) | Activity [1] [nmol/min/mg] | Activity [2] [nmol/min/mg protein] | Activity [3] [nmol/mg protein] | Activity [4] [nmol/min/mg] | Activity (Erythrocyte [5]) [%] | Activity [6] [nmol/mg protein] | Activity [7] [nmol/min/mg] | Activity [8] [nmol/mg protein] | Activity [9] [µmol/min] | Activity [10] [nmol/mg protein] | Activity [11] [µmol/min] | Activity [12] [µmol/min] | viability at 100 µM [13] [%] | Activity [14] | Activity (Erythrocyte [15]) [%] | Activity [16] [µmol/min] |
| --- | --- | --- | --- | --- | --- | --- | --- | --- | --- | --- | --- | --- | --- | --- | --- | --- | --- |
|  | COc1cc2c(cc1OC)C1(O)c3ccccc3C(=O)N1CC2 (stereo unspecified) | 26.54 | 64.87 | 29.27 | 43.65 | 34.44 | 18.32 | 48.43 | 38.46 | 23.98 | 16.54 | 19.35 | 17.34 | 79.3 | Non-toxic | 65.56 | 28.45 |
|  | COc1ccc2c(c1)CCN1C(=O)c3ccccc3C21O (stereo unspecified) | 15.31 | 16.37 | 56.32 | 16.25 | 41.96 | 42.14 | 16.46 | 62.98 | 11.48 | 48.12 | 11.87 | 12.65 | 53.6 | Non-toxic | 57.29 | 11.37 |
|  | COc1cc2c(cc1OC)C1(O)C3C4c5ccccc5C(c5ccccc54)C3C(=O)N1CC2 (stereo unspecified) | 46.11 | 67.91 | 35.6 | 55.89 | 16.55 | 18.1 | 65.12 | 51.48 | 23.58 | 24.44 | 19.63 | 15.86 | 87.3 | Non-toxic | 82.45 | 27.87 |
|  | COc1ccc(OC)c2c1CCN1C(=O)c3ccccc3C21O (stereo unspecified) | 23.65 | 68.46 | 28.21 | 31.76 | 8.55 | 20.14 | 47.53 | 36.23 | 23.76 | 14.24 | 19.24 | 16.32 | 72 | Non-toxic | 90.45 | 27.76 |
|  | COc1ccc2c(c1OC)CCN1C(=O)CCCC21 (stereo unspecified) | 17.36 | 31.43 | 54.23 | 25.95 | 9.75 | 49.54 | 28.47 | 61.45 | 11.95 | 48.23 | 11.48 | 11.76 | 86.6 | Non-toxic | 73.84 | 12.98 |
|  | COc1cc2c(c(OC)c1)C1CCC(=O)N1CC2 (stereo unspecified) | 38.65 | 70.43 | 19.12 | 46.35 | 45.8 | 16.14 | 58.28 | 28.38 | 24.35 | 16.87 | 19.43 | 17.23 | 68.3 | Non-toxic | 54.2 | 29.34 |
|  | Cc1ccc2c(c1)CCN1C(=O)c3ccccc3C21O (stereo unspecified) | 31.71 | 65.35 | 43.76 | 50.35 | 11.44 | 16.95 | 54.56 | 53.66 | 15.08 | 26.52 | 14.56 | 11.51 | 82.3 | Non-toxic | 87.56 | 18.6 |
|  | O=C1c2ccccc2C2(O)c3ccc(Br)cc3CCN12 (stereo unspecified) | 36.597 | 65.007 | 54.24 | 51.14 | 4.55 | 16.75 | 56.05 | 70.74 | 17.51 | 34.52 | 14.05 | 12.8667 | 75.3 | Non-toxic | 94.32 | 21.58 |
| 53.2 | O=C1NCCc2c(OCCCCN3CCCCC3)cccc21 |  |  |  |  |  |  |  |  |  |  |  |  |  |  |  |  |
|  | COc1ccc2c(c1OC)CCN1C(=O)c3ccccc3C21O (stereo unspecified) | 15.31 | 16.37 | 46.37 | 16.25 | 42.97 | 48.32 | 16.46 | 53.65 | 15.54 | 41.21 | 15.96 | 13.19 | 65.6 | Non-toxic | 56.64 | 18.13 |
|  | COc1cc2c(cc1O)C1(O)c3ccccc3C(=O)N1CC2 (stereo unspecified) | 29.52 | 70.66 | 47.15 | 51.49 | 7.34 | 15.02 | 62.57 | 52.71 | 28.863 | 26.35 | 21.63 | 18.616 | 93.6 | Non-toxic | 92.3 | 30.94 |
